Legend:
Format in all cases: functional, cell-based
[1] = molecular target: T1, Transient receptor potential cation channel subfamily A member 1 (Homo sapiens, UniProt O75762); test: Agonist activity at human TRPA1 expressed in HEK293 cells assessed as [45]Ca2+ influx by microbeta plate count relative to cinnamaldehyde
[2] = molecular target: T1, Transient receptor potential cation channel subfamily A member 1; test: Antagonist activity at human TRPA1 expressed in HEK293 cells assessed as [45]Ca2+ influx by microbeta plate count
[3] = molecular target: T1, Transient receptor potential cation channel subfamily A member 1; test: Antagonist activity at human TRPA1 expressed in HEK293 cells assessed as inhibition of cinnamaldehyde-induced [45]Ca2+ influx by microbeta plate count
[4] = molecular target: T1, Transient receptor potential cation channel subfamily A member 1; test: Agonist activity at human TRPA1 expressed in HEK293 cells assessed as [45]Ca2+ influx by microbeta plate count

T1 sequence (O75762 whole entry): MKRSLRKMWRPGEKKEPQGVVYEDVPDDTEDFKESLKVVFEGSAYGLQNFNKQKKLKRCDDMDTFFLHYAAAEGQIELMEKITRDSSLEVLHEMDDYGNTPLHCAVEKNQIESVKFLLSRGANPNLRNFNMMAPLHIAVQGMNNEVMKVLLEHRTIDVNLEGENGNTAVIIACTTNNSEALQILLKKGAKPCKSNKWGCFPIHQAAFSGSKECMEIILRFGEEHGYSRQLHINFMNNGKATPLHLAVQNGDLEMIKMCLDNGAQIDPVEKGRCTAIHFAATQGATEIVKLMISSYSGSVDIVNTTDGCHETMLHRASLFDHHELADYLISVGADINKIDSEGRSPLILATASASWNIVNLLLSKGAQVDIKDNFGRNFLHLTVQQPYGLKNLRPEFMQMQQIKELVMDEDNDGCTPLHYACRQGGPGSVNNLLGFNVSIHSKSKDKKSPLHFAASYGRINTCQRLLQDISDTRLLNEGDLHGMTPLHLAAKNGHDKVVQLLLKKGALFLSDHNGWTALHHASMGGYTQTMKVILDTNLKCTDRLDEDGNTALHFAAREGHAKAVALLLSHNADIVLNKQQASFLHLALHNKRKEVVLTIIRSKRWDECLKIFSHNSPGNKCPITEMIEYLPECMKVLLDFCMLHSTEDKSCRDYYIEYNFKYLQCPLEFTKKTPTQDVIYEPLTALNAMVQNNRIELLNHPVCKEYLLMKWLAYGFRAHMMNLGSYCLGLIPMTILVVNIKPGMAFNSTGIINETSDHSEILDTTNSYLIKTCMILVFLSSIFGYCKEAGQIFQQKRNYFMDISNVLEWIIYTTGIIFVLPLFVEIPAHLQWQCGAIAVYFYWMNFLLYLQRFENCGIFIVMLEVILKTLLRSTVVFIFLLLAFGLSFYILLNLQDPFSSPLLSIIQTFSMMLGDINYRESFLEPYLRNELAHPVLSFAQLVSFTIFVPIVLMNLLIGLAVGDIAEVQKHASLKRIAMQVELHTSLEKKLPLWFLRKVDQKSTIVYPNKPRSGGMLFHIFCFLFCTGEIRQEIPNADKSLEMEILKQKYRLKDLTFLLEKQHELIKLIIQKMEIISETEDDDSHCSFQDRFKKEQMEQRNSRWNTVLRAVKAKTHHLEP

Row | SMILES | Efficacy [1] | IC50 [2] [µM] | KB [3] [µM] | EC50 [4] [µM]
1 | O/N=C/C=C/c1ccccc1 | 0 |  |  | 
2 | CC(=C\c1ccc(Cl)cc1)/C(C)=N/O [AP18 5] | 0 | 2.8 | 1.26 | 
3 | CC(/C=C/c1ccc(Cl)cc1)=N\O | 0.66 |  |  | 27.6
4 | O/N=C/C=C/c1ccc(C(F)(F)F)cc1 | 0.13 |  |  | 
5 | NC(/C=C/c1cc(C(F)(F)F)cc(C(F)(F)F)c1)=N\O | < 0.1 |  |  | 
6 | CC(=C\c1ccccc1)/C(C)=N/O | 0 | 2.7 | 1.91 | 
7 | CC(=C\c1ccccc1Cl)/C(C)=N/O | 0 |  |  | 
8 | O=C/C=C/c1ccccc1 [CINNAMALDEHYDE] |  |  |  | 51.4
9 | CC(/C=C/c1cccc(Cl)c1)=N\O | 0.85 |  |  | 63.1
10 | O/N=C\C=C\c1ccc(Cl)cc1 | 0.85 |  |  | 9.4
11 | CC(/C=C/c1cccc(Cl)c1)=N/O | 0.21 |  |  | 
12 | CC(/C=C/c1ccc2c(c1)OCO2)=N\O | 0.54 |  |  | 11.5
13 | CC(/C=C/c1ccccc1)=N\O | 0.27 |  |  | 96.6
14 | COc1ccc(/C=C(C)/C(C)=N/O)cc1 | 0.23 |  |  | 46.1
15 | CC(=C\c1cccc(C)c1)/C(C)=N/O | 0.84 |  |  | 14.4
16 | CC(=C\c1cccc([N+](=O)[O-])c1)/C(C)=N/O | 0 |  |  | 
17 | CC(/C=N/O)=C\c1ccccc1 | 0.18 |  |  | 69.4
18 | CC(/C=N/O)=C\c1ccc(C(C)(C)C)cc1 | 0.15 |  |  | 
19 | CN(C)c1ccc(/C=C/C=N/O)cc1 | 0.87 |  |  | 15.9
20 | O/N=C/C=C/c1ccc(Cl)cc1 | 0.46 |  |  | 
